Measurements from ChEMBL document CHEMBL1201862, “PubChem BioAssay data set” (2004).
Values joined by “and” are separate entries in the source; they are usually repeats but may differ in a detail not shown here. Equal entries are not always repeated.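 Method: 48-hour compound exposure of cells in 96-well plates, five concentrations, linear interpolation of endpoints. GI50 = concentration required for 50% inhibition of growth.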 Active and inactive are the calls of the source. No stated cut-off is given here; in the data, active = GI50 up to about 1.1 µM and inactive = higher.

Assays:
Assay in all cases: growth of human tumour cells (NCI), 48 h
SF-295 = tested on: SF-295
EKVX = tested on: EKVX
A498 = tested on: A498
HCT-15 = tested on: HCT-15
UACC-62 = tested on: UACC-62
MCF7 = tested on: MCF7
HL-60 = tested on: HL-60
HOP-62 = tested on: HOP-62
T47D = tested on: T47D
NCI/ADR-RES = tested on: NCI/ADR-RES
BT-549 = tested on: BT-549
HCC 2998 = tested on: HCC 2998
HT-29 = tested on: HT-29
Hs-578T = tested on: Hs-578T
MOLT-4 = tested on: MOLT-4
MDA-MB-435 = tested on: MDA-MB-435
SNB-19 = tested on: SNB-19
NCI-H460 = tested on: NCI-H460
SNB-75 = tested on: SNB-75

| SMILES | GI50 (SF-295) | GI50 (EKVX) | GI50 (A498) | GI50 (HCT-15) [µM] | GI50 (UACC-62) | GI50 (MCF7) | GI50 (HL-60) | GI50 (HOP-62) | GI50 (T47D) | GI50 (NCI/ADR-RES) | GI50 (BT-549) | GI50 (HCC 2998) | GI50 (HT-29) | GI50 (Hs-578T) | GI50 (MOLT-4) | GI50 (MDA-MB-435) | GI50 (SNB-19) | GI50 (NCI-H460) | GI50 (SNB-75) |
| --- | --- | --- | --- | --- | --- | --- | --- | --- | --- | --- | --- | --- | --- | --- | --- | --- | --- | --- | --- |
| Cc1ccc(SC2C(=O)C3CC(OCc4ccccc4)C2(C)C3(C)C)cc1 (stereo unspecified) | > 100 µM (inactive) | 64.7 µM (inactive) | > 100 µM (inactive) | 29.1 | > 100 µM (inactive) | > 100 µM (inactive) | 37.9 µM (inactive) | > 100 µM (inactive) | 13.1 µM (inactive) | > 100 µM (inactive) | > 100 µM (inactive) | > 100 µM (inactive) | 41.9 µM (inactive) | > 100 µM (inactive) | 13 µM (inactive) | > 100 µM (inactive) | > 100 µM (inactive) | > 100 µM (inactive) | – |
| COc1cccc(-c2cc(O)c3cc(C)cnc3n2)c1 | 0.0405 µM (active) | – | 0.0904 µM (active) | 0.251 | 0.0258 µM (active) | 0.543 µM (active) | 0.0246 µM (active) | 0.0682 µM (active) | > 100 µM (inactive) | 0.0295 µM (active) | > 100 µM (inactive) | 1.51 µM (inactive) | 0.0318 µM (active) | 0.0495 µM (active) | 0.115 µM (active) | 0.0122 µM (active) | 0.0667 µM (active) | 0.0458 µM (active) | 0.0188 µM (active) |
| CC(=O)OCC1OC(SC2=NC(=O)CS2)C(OC(C)=O)C(OC(C)=O)C1OC(C)=O (stereo unspecified) | > 100 µM (inactive) | – | > 100 µM (inactive) | – | > 100 µM (inactive) and 76.6 µM (inactive) | 71.4 µM (inactive) | 26.7 µM (inactive) and 23.4 µM (inactive) | > 100 µM (inactive) | > 100 µM (inactive) | > 100 µM (inactive) | 93.5 µM (inactive) and 62.7 µM (inactive) | > 100 µM (inactive) | > 100 µM (inactive) | > 100 µM (inactive) | 57.7 µM (inactive) and 51.8 µM (inactive) | > 100 µM (inactive) | > 100 µM (inactive) | > 100 µM (inactive) | > 100 µM (inactive) |
| COc1cc(OCc2nc3cc(C(F)(F)F)ccc3nc2-c2ccccc2)cc(OC)c1OC | 47.3 µM (inactive) | 91.4 µM (inactive) | > 100 µM (inactive) | > 100 | 61.4 µM (inactive) | 56.4 µM (inactive) | > 100 µM (inactive) | – | 11.9 µM (inactive) | 61.2 µM (inactive) | > 100 µM (inactive) | > 100 µM (inactive) | > 100 µM (inactive) | 55.6 µM (inactive) | 8.75 µM (inactive) | > 100 µM (inactive) | 94.6 µM (inactive) | > 100 µM (inactive) | 98.9 µM (inactive) |
| C=CCCCCOC1C=CC(OC(C)=O)C(COC(C)=O)O1 (stereo unspecified) | > 100 µM (inactive) | > 100 µM (inactive) | > 100 µM (inactive) | > 100 | > 100 µM (inactive) | > 100 µM (inactive) | > 100 µM (inactive) | > 100 µM (inactive) | > 100 µM (inactive) | > 100 µM (inactive) | > 100 µM (inactive) | > 100 µM (inactive) | > 100 µM (inactive) | 0.324 µM (active) | > 100 µM (inactive) | > 100 µM (inactive) | > 100 µM (inactive) | > 100 µM (inactive) | – |
| O=C1/C(=C\c2cccc(Oc3ccccc3)c2)S(=O)(=O)C(c2ccccc2)N1Cc1ccccc1 (stereo unspecified) | 55.8 µM (inactive) | 25.8 µM (inactive) | 19.3 µM (inactive) | 15.6 | 19.1 µM (inactive) | 39.1 µM (inactive) | 11.7 µM (inactive) | 26.5 µM (inactive) | 32.8 µM (inactive) | 19.4 µM (inactive) | 29 µM (inactive) | 28.7 µM (inactive) | – | 13.6 µM (inactive) | 0.83 µM (active) | 32.3 µM (inactive) | 21.4 µM (inactive) | 15.1 µM (inactive) | – |
